Experimental data published in PubChem BioAssay AID1188 (EPA DSSTox, 2008).
Activity calls are given as the source filed them.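 How the source made its calls: active means a concentration killing half the fathead minnows in the acute test was determined; inconclusive means some fish died but not half at top dose; inactive means no fish died even at top dose.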

Each compound was assayed on Fathead minnow (Pimephales promelas) acute toxicity, lethality (assay: DSSTox (EPAFHM) EPA Fathead Minnow Acute Toxicity).
Excerpt: The EPA Fathead Minnow Acute Toxicity database was generated by the U.S. EPA Mid-Continental Ecology Division (MED) for the purpose of developing an expert system to predict acute toxicity from chemical structure based on mode of action considerations. […] A second valuable aspect of this database, from a QSAR modeling perspective, is the inclusion of general mode-of-action (MOA) classifications of acute toxicity response for individual chemicals derived from study results. MOA assignments are biologically based classifications, allowing definition of chemical similarity based upon biological activity instead of organic chemistry functional class as most commonly employed in QSAR study. MOA classifications should strengthen the scientific basis for construction of individual QSARs. However, it is cautioned that the broad MOA categorizations should not be construed to represent a single molecular mechanism; for example, CNS seizure agents and respiratory inhibitors are known to act through a variety of receptors. The EPA Fathead Minnow database and results have been used by EPA MED to build components of the ASTER prediction system, which incorporates MOA-based QSARs for the prediction of aquatic toxicity of environmental and industrial chemicals. Briefly, MOA classifications for individual chemicals, derived from experiments and provided in the EPA Fathead Minnow database, were used to derive substructural rules for assigning a new chemical to an MOA category based solely on chemical structure. Once a new chemical is assigned to an MOA category on this basis, the logP-based QSAR for that MOA category is applied.
The DSSTox EPAFHM database (available from the DSSTox Source URL) includes information pertaining to organic chemical class assignments (ChemClass_FHM), acute toxicity in fathead minnow (LC50_mg), dose-response assessments (LC50_Ratio, ExcessToxicityIndex), behavioral assessments (FishBehaviorTest), joint toxicity MOA evaluations of mixtures (MOA_MixtureTest), and additional MOA evaluation of fish acute toxicity syndrome (FishAcuteToxSyndrome) in rainbow trout. All of these indicators, to the extent available, were considered in the determination of MOA and, additionally, were used to determine a level of confidence in the MOA assignment for each chemical (MOA_Confidence). […] Activity Score is mapping of LOG10 (1/LC50_mmol) activity values spanning activity range [MIN, MAX] onto Integer 1-100 Activity range, where 100 is highest potency and 1 is lowest. If Activity Outcome is "active": Activity Score = 100 * INTEGER[(log10(1/ LC50_mmol) - MIN)/([…])].

SMILES | Potency [µM] | outcome
CC(C)=CC=C(C)C | 34.3 | –
CC=O | 767 | –
CCN(CC)CCCC(C)=O | 2140 | –
CCOC(N)=O | 58800 | –
Cc1ccccn1 | 9630 | –
NCc1ccccc1 | 952 | –
ON=C1CCCCC1 | 1840 | –
CC(C)SSC(C)C | 55.3 | –
Nc1cccc(OCc2ccccc2)c1 | 45.9 | –
OCC#CCO | 623 | –
N#CCC#N | 8.48 | –
N#Cc1ccccn1 | 6970 | –
C=CCc1ccccc1O | 112 | –
CCCBr | 547 | –
Cc1ccccc1C=O | 440 | –
CC(=O)c1ccccc1 | 1350 | –
S=c1[nH]c2cc(Cl)ccc2s1 | 15.9 | –
C=CCC1(C(C)CCC)C(=O)N=C(O)NC1=O (stereo not drawn) | 90.7 | –
O=C(c1ccccc1)c1ccncc1 | 562 | –
CCOc1ccc(N)c([N+](=O)[O-])c1 | 143 | –
NCCc1ccccn1 | – | inactive; moa not determined either due to lack of toxicity at saturation or late test res
CCC(C)(C)c1ccc(O)cc1 | 15.8 | –
CCCC(C)C1(CC)C(=O)N=C(S)NC1=O (stereo not drawn) | 99.1 | –
COc1cccc(C=O)c1O | 15.8 | –
Nc1ccc(O)c([N+](=O)[O-])c1 | 235 | –

SMILES | Potency [µM] | outcome
CCOC(=O)CC(SP(=S)(OC)OC)C(=O)OCC (stereo not drawn) | 42.7 | –
CC(C)[C@H](C(=O)OC(C#N)c1cccc(Oc2ccccc2)c1)c1ccc(OC(F)F)cc1 (stereo partly drawn) | 0.000421 | –
Brc1ccccc1Br | 17.2 | –
CCCCC(C)=O | 4270 | –
Oc1cccnc1Br | 2700 | –
CCNc1cccc(C)c1 | 366 | –
Nc1ccc([N+](=O)[O-])cc1Cl | 116 | –
O=P(c1ccccc1)(c1ccccc1)c1ccccc1 | 193 | –
CCOC(=O)CCCCCCCCC(=O)OCC | 10.5 | –
CCCCOC(=O)CCC(=O)OCCCC | 19.4 | –
C=C(C)C(=O)OCC1CCCO1 (stereo not drawn) | 204 | –
Nc1ccc(Cl)c(Cl)c1Cl | 18.5 | –
N#CCCCCCCC#N | 3880 | –
ClC(Cl)=C(Cl)C(Cl)=C(Cl)Cl | 0.345 | –
ClC=C(Cl)Cl | 336 | –
CC(C)C(C)N (stereo not drawn) | 3260 | –
BrC(Br)c1ccccc1C(Br)Br | 1.04 | –
CC(C)=O | 123000 | –
C1CCC(C2CCCCC2)CC1 | – | inactive; moa not determined either due to lack of toxicity at saturation or late test res
Cc1ccc(O)cc1 | 153 | –
CC(C)(C)CN | 5450 | –
CCOc1cc(C=O)ccc1O | 527 | –
O=P(Oc1ccccc1)(Oc1ccccc1)Oc1ccccc1 | 2.66 | –
Cc1ccc(S(=O)(=O)n2ccnc2)cc1 | 188 | –
c1ccc(-c2ccc(-c3ccccc3)o2)cc1 | – | inactive; moa not determined either due to lack of toxicity at saturation or late test res

SMILES | Potency [µM] | outcome
O=c1ccc(Cl)c[nH]1 | 8800 | –
COCCN | 6980 | –
CCOP(=O)(OCC)SCCSCC | 61.9 | –
CNC(=O)Oc1ccc(N(C)C)c(C)c1 | 9.36 | –
c1ccc(-c2ccncc2)cc1 | 104 | –
O=[N+]([O-])c1cccc(P(=O)(c2cccc([N+](=O)[O-])c2)c2cccc([N+](=O)[O-])c2)c1 | – | inactive; moa not determined either due to lack of toxicity at saturation or late test res
C=C(CCl)CCl | 1.52 | –
CCCc1ccc(O)cc1 | 80.8 | –
O=[N+]([O-])c1ccc(O)cc1 | 322 | –
C=CCC(O)C=C (stereo not drawn) | 388 | –
Cc1ccc(SSc2ccc(C)cc2)cc1 | – | inactive; moa not determined either due to lack of toxicity at saturation or late test res
Oc1cccc2ccccc12 | 32.1 | –
O=[N+]([O-])c1ccccc1Oc1ccc(Cl)cc1 | 7.69 | –
CCOP(=S)(OCC)Oc1cc(C)nc(C(C)C)n1 | 30.7 | –
C1CN2CCN1CC2 | 15400 | –
[N-]=[N+]=[N-] | 84 | –
C=CC(=O)OCCO | 41.4 | –
CC(O)CC(C)(C)O (stereo not drawn) | 90500 | –
Nc1ccccc1Cl | 45 | –
CC1(C)[C@H]2CC[C@]1(C)C(=O)C2 | 112 | –
O=[N+]([O-])c1ncccc1O | 1190 | –
CCCCCCCCOc1ccccc1NC(C)=O | 1.71 | –
CC(O)CN (stereo not drawn) | 33600 | –
